Assay [1] relates to A549 cells with Kras G12S mutation. As to the kind of experiment: Cell proliferation inhibition experiment, 3D spheroid, CellTiter-Glo (Test Example 1). The assay is classed as cell-based, human. The following applies: 5 days. The procedure:
(§1) NCI-H358 was a human NSCLC cell line with Kras G12C mutation, which was cultured in a RPMI-1640 medium with 10% fetal bovine serum (FBS). A549 was a human lung adenocarcinoma cell line with Kras G12S mutation, which was cultured in an F-12K medium with 10% FBS. Cells in logarithmic growth phase were detached with trypsin and EDTA, collected and counted, and H358 was regulated to 1.8E4 cells/ml by using an RPMI-1640 medium with 2% FBS, while A549 was regulated to 8.9E3 cells/ml with an F-12K medium containing 2% FBS. 800 (45 μl) H358 cells and 400 (45 μl) A549 cells were seeded to 384-well spheroid plates, respectively, and cultured overnight to establish 3D cell models. 1000× stock solutions of compounds at a concentration gradient of 3.16 were prepared by using DMSO, and diluted 100 times by the medium with 2% FBS into 10× stock solutions of compounds. On the day after cell seeding, 5 μl of 10× stock solution of a compound was added to each well of cell culture plate, with a final concentration being 1× and a DMSO content of 0.1%. DMSO was used as the control, and the medium with 2% FBS was used as blank control group. After 5 days of cell culture with the compound, 25 μl of CellTiter-Glo working solution was added to each well, and mixed uniformly at 400 rpm and incubation for 30 minutes. After standing at room temperature for 30 minutes, 40 μl of mixed solution was transferred to a 384-well plate with white clear bottom. A value of luminescence was then read, and a cell proliferation inhibition rate (IR) (%)=(RLU control-RLU compound)/(RLU control−RLU blank)×100%. The value of IC50 was calculated by fitting a gradiently diluted concentration of the compound and the corresponding cell proliferation inhibition rate using a Prism 6 four-parameter method.
(In general: In ATP-based viability assays light output follows the ATP content of the culture.)

In assay [2] the test system is NCI-H358 cells with Kras G12C mutation. The assay is described as above. It is filed as cell-based, human. To be noted: 5 days. The procedure:
as §1

A further assay addresses KRas G12C (Homo sapiens (Human), UniProt P01116, G12C). As to the kind of experiment: Nucleotide exchange assay (NEA)-HTRF, SOS1 catalyzed displacement of GDP by GTP (Test Example 4). It is filed as biochemical. The procedure:
The effects of compounds on SOS1 catalyzed displacement of GDP by GTP on KRas proteins was examined by homogeneous time-resolved fluorescence (HTRF). 30 μM 6×his labeled KRas G12C recombinant protein and 80 μM fluorochrome DY647 labeled GDP were co-incubated in a labeling buffer (1 mM DTT, 7.5 mM EDTA, 25 mM Tris-HCl, 45 mM NaCl) at 20° C. away from light for 2 hours. Protein quantification was performed after purification on the NAP-5 column to determine the concentration of KRas G12C-GDP.
1000× stock solutions of compounds at a concentration gradient of 3.16 were prepared by using DMSO, and diluted 250 times by a reaction buffer (40 mM N-2-hydroxyethylpiperazine-N-2-ethane sulfonic acid (HEPES), 10 mM MgCl2, 1 mM DTT, 0.002% Triton X-100) into 4× stock solutions of compounds. KRas G12C-GDP/Tb working solution (40 nM KRas G12C-GDP, 1×anti-his Tb) and SOS1/GTP working solution (0.2 μM SOS1, 200 μM GTP) were prepared by using the reaction buffer.
5 μl of 4×stock solution of a compound and 10 μl of KRas G12C-GDP/T working solution were added to each well of 96-well plate with white unclear bottom, and 5 μl of reaction buffer was added to the well of control group in stead of the 4×stock solution of a compound. After incubation at 20° C. away from light for 15 minutes, 5 μl of SOS1/GTP working solution was added and incubated at 20° C. away from light for 2 hours, and then a value of fluorescence intensity was read (excitation wavelength: 320 nm, and emission wavelengths: 615 nm and 665 nm). Besides, group TO was established with 10 μl of the reaction buffer and 10 μl of the KRas G12C-GDP/Tb working solution, and the value of fluorescence intensity was directly read. A relative light unit (RLU) was calculated by the following equation: RLU=(665 nm signal/615 nm signal)×10^4; and the inhibition rate (IR) of the compound was calculated by the following equation: IR (%)=(RLUcompound−RLUcontrol)/(RLUT0−RLUcontrol)×100%. The value of IC50 was calculated by fitting a gradiently diluted concentration of the compound and the corresponding cell proliferation inhibition rate using a four-parameter method.
(TR-FRET usually uses a lanthanide donor and a delayed reading to cut background.)

For assay [3], the system named is phosphorylated ERK in MIA PaCa2 cells with Kras G12C mutation. As to the kind of experiment: p-ERK HTRF assay for cells (Test Example 2). It is filed as cell-based, human. To be noted: Homo sapiens, MIA PaCa-2, 2 h, MIA PaCa2 cells, 2 hours with compound; read-out: p-ERK IC50. The method, then:
MIA PaCa2 was a human pancreatic carcinoma cell line with Kras G12C mutation, which was cultured in a DMEM with 10% FBS and 2.5% Horse serum. Cells in logarithmic growth phase were detached with trypsin and EDTA, collected and counted, and 2.5E4 cells were seeded to a 96-well cell culture plate and cultured overnight. 1000× stock solutions of compounds at a concentration gradient of 3.16 were prepared by using DMSO, and diluted 200 times by the medium into 5× stock solutions of compounds. On the day after cell seeding, 5× stock solution of a compound was added to each well of cell culture plate, with a final concentration being 1× and a DMSO content of 0.1%. DMSO was used as the control. The residual culture was removed after culturing for 2 hours with the compound. To each well, 50 ul of cell lysis buffer was added and mixed uniformly and incubation for 30 minutes. Subsequently, 16 ul of mixed solution was transferred to a 96-well plate with white unclear bottom, and 16 ul of cell lysis buffer was added to the blank control group. After the completion of transfer, 4 ul of p-ERK HTRF antibody mixture was added to each well, and a value of fluorescence intensity was read after incubation for 4 hours. The inhibition rate (IR) of the compound was calculated by the following equation: IR (%)=(RLU control-RLU compound)/(RLU control−RLU blank)×100%. The value of IC50 was calculated by fitting a gradiently diluted concentration of the compound and the corresponding cell proliferation inhibition rate using a Prism 8 four-parameter method.

Assay [4] concerns subcutaneous xenograft tumor model of MIA PaCa-2. As to the kind of experiment: In vivo pharmacodynamic experiment, tumor growth inhibition (Test Example 5). Further details: species or system BALB/c nude mice. To be noted: p.o., QD; for TGI: day 14. The procedure:
Experimental objective: to evaluate the in vivo pharmaceutical effects of tested compounds on the subcutaneous xenograft tumor model of MIA PaCa-2.
Experimental operation: 6 to 8 weeks old female BALB/c nude mice each having the body weight of 18-20 g were chosen. MIA PaCa-2 cells were cultured in DMEM containing 10% FBS, 2.5% HS and 1% penicillin-streptomycin at 37° C. in an incubator with 5% CO2. Cells were collected. The MIA PaCa-2 cells were subcutaneously inoculated to the animals at their backs on the right, 2.0×10^6 cells (0.1 mL) for each animal. When tumor grew to 190-311 mm^3, mice with tumor having a suitable size were chosen and treated in groups, with administration dosages shown in Table 5 below. The animals were weighed on an electronic balance each day. The tumor volume was investigated by using a vernier caliper twice a week. The tumor volume was calculated by the following equation: V=0.5 a×b^2, a and b representing the long diameter and the short diameter of the tumor, respectively. The tumor volume was used to calculate a tumor growth inhibition rate (TGI), and the TGI shown in the form of a percentage was used to indicate the antineoplastic activity of a compound. The TGI was calculated by the following equation: TGI (%)=[1−avTi−0/avCi−0)]×100, with avTi−0 representing the average tumor volume of the group administrated with the compound on a specific day minus the average tumor volume of this group on the day of grouping, and avCi−0 representing the average tumor volume of the solvent control group on a specific day minus the average tumor volume of the solvent control group on the day of grouping. The tumor volume was shown in the form of an average value±standard error of mean (SEM).

The test system of assay [5] is MIA PaCa-2 cells with Kras G12C mutation. As to the kind of experiment: Cell proliferation inhibition experiment, 3D spheroid, CellTiter-Glo (Test Example 3). It is filed as cell-based, human. To be noted: Homo sapiens, MIA PaCa-2, 120 h, 5 days, read-out: MIA-PaCa2 IC50. The method, then: MIA PaCa-2 was a human pancreatic carcinoma cell line with Kras G12C mutation, which was cultured in a DMEM with 10% FBS and 2.5% Horse serum. A549 was a human lung adenocarcinoma cell line with Kras G12S mutation, which was cultured in an F-12K medium with 10% FBS. Cells in logarithmic growth phase were detached with trypsin and EDTA, collected and counted, and 200 MIA PaCa-2 cells and 400 A549 cells were seeded to 384-well spheroid plates, respectively, and cultured overnight to establish 3D cell models. 1000× stock solutions of compounds at a concentration gradient of 3.16 were prepared by using DMSO, and diluted 100 times by the medium into 10× stock solutions of compounds. On the day after cell seeding, 10× stock solution of a compound was added to each well of cell culture plate, with a final concentration being 1× and a DMSO content of 0.1%. DMSO was used as the control, and the medium was used as the blank. After 5 days of cell culture with the compound, 30 μl of CellTiter-Glo working solution was added to each well, and mixed uniformly and incubation for 30 minutes. After standing at room temperature for 30 minutes, 40 μl of mixed solution was transferred to a 384-well plate with white unclear bottom. A value of luminescence intensity was then read, and a cell proliferation inhibition rate (IR) (%)=(RLU control−RLU compound)/(RLU control−RLU blank)×100%. The value of IC50 was calculated by fitting a gradiently diluted concentration of the compound and the corresponding cell proliferation inhibition rate using an XLFit four-parameter method.

Results on seven compounds are retold here after US12054497B2, “Substituted heterocyclic fused cyclic compound, preparation method therefor and pharmaceutical use thereof” (GENFLEET THERAPEUTICS (SHANGHAI) INC., priority 2019, dated 2024).

Chain of KRas G12C (P01116-2 other isoform, or with tags, fused parts or gaps G12C): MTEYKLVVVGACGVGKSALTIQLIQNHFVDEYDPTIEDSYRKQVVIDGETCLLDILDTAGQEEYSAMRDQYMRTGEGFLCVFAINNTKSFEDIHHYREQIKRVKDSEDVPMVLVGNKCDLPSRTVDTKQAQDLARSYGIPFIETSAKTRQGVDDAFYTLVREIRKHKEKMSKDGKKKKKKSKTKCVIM

On to `[2H]C([2H])([2H])N1C(=O)[C@H]2CN(C(=O)C=C)CCN2c2c1c(=O)n(-c1c(C(C)C)ncnc1C(C)C)c1c(F)c(-c3c(O)cccc3F)c(Cl)cc21` (single isomer, unassigned) [Compound Z39-2], for which the values for the IC50 (in assay [1]; in assay [2]; on KRas G12C) were 7780 nM, 316 nM and 2240 nM, respectively.
On to `C=CC(=O)N1CCN2c3c(c(=O)n(-c4c(C)ccnc4C(C)C)c4nc(-c5c(O)cccc5F)c(Cl)cc34)N(C)C(=O)[C@H]2C1` (single isomer, unassigned) [Compound Z25-1], for which the IC50 (commonly the concentration that inhibits the measured activity by half) was above 30000 nM in assay [1] (Homo sapiens, A549, 120 h); 50 nM in assay [2]; 951 nM at KRas G12C.
At KRas G12C, `C=CC(=O)N1CCN2c3c(c(=O)n(-c4c(C)ccnc4C(C)C)c4nc(-c5c(O)cccc5F)c(F)cc34)OC[C@H]2C1` (atropisomer, axis not shown) [Compound Z1-2] gave an IC50 of 1430 nM.
Regarding `C=CC(=O)N1C[C@@H]2C(=O)N(C)c3c(c4cc(F)c(-c5c(O)cccc5F)nc4n(-c4c(C#N)cccc4C(C)C)c3=O)N2C[C@H]1C` (atropisomer, axis not shown) [Compound Z38-2, 2-((2R,4aR)-3-acryloyl-11-fluoro-10-(2-fluoro-6-hydroxyphenyl)-2,6-dimethyl-5,7-dioxo-2,3,4,4a,5,6-hexahydro-1H-pyrazino[1′,2′:4,5]pyrazino[2,3-c][1,8]naphthyridin-8(7H)-yl)-3-isopropylbenzonitrile], the IC50 in assay [1] was above 30000 nM; in assay [2], 513 nM; on KRas G12C, 2150 nM.
Regarding `C=CC(=O)N1C[C@@H]2C(=O)N(C)c3c(c4cc(Cl)c(-c5c(O)cccc5F)nc4n(-c4c(C(C)C)ncnc4C(C)C)c3=O)N2C[C@H]1C` [Compound Z23, (2R,4aR)-3-acryloyl-11-chloro-8-(4,6-diisopropylpyrimidin-5-yl)-10-(2-fluoro-6-hydroxyphenyl)-2,6-dimethyl-2,3,4,4a,6,8-hexahydro-1H-pyrazino[1′,2′:4,5]pyrazino[2,3-c][1,8]naphthyridin-5,7-dione], the IC50 amounted to 10500 nM in assay [1] (Homo sapiens, A549, 120 h); 2 nM in assay [2] (Homo sapiens, NCI-H358, 120 h); 17 nM in assay [3]; 2 nM in assay [5]. Further, the “Tumor Volume on Day 14 after Administration” value is 194.65 mm^3 in assay [4] (1 mg/kg), 59.52 mm^3 in assay [4] (3 mg/kg) and 47.32 mm^3 in assay [4] (10 mg/kg). The values for the TGI in assay [4] (1 mg/kg), in assay [4] (3 mg/kg) and in assay [4] (10 mg/kg) were 113.2%, 143.5% and 149.2%, respectively.
On to `C=CC(=O)N1CCN2c3c(c(=O)n(-c4c(C(C)C)ncnc4C(C)C)c4c(F)c(-c5c(O)cccc5F)c(Cl)cc34)NC(=O)[C@H]2C1` (single isomer, unassigned) [Compound Z37-2], for which the IC50 in assay [1] turned out to be 3320 nM; in assay [2], 165 nM; at KRas G12C, 1900 nM.
For `C=CC(=O)N1CCN2c3c(c(=O)n(-c4c(C(C)C)ncnc4C(C)C)c4nc(-c5c(O)cccc5F)c(F)cc34)N(C)C(=O)[C@H]2C1` [Compound Z41, (4aR)-3-acryloyl-8-(4,6-diisopropylpyrimidin-5-yl)-11-fluoro-10-(2-fluoro-6-hydroxyphenyl)-6-methyl-2,3,4,4a,6,8-hexahydro-1H-pyrazino[1′,2′:4,5]pyrazino[2,3-c][1,8]naphthyridin-5,7-dione], the IC50 in assay [1] (Homo sapiens, A549, 120 h) was above 30000 nM; in assay [2] (Homo sapiens, NCI-H358, 120 h), 17 nM; in assay [3], 279 nM; in assay [5], 44 nM.
